One experiment concerns GP2D. Description: Cell proliferation inhibition, GP2D (CellTiter-Glo 3D, 7 days). It is filed as cell-based. As for the experimental part: (§1) • (a) Resuscitating cells in T75 cell culture flask: • (b) When the cell confluence reaches 80-90%, subculturing the cells.
(§2) The diluted test compound was added to a 384-well cell culture plate with a nanoliter pipetting system, and duplicate wells were set up. An equal volume of culture medium was added to the positive control group; and an equal volume of DMSO was added to the negative control group, then centrifugation was conducted at 1000 rpm for 1 min at room temperature.
(§3) Cells were inoculated into a) 384-well culture plate, with an equal volume of cells added to the negative control group, and only an equal volume of culture medium added to the positive control group. The plate was centrifuged at 1000 rpm for 1 min at room temperature, and the final DMSO concentration of the compound was 0.5% at last. The plate was placed in a 37° C., 5% CO2 constant temperature incubator for 7 days.
(§4) 20 μL/well of CellTiter-Glo® 3D to b) was added to 384-well cell culture plate, and the plate was shook at 320 rpm for 20 min in the dark, and incubated at room temperature in the dark for 2 hrs.
(§5) The luminescence value was read using an Envision multi-functional microplate reader.
(§6) The inhibition rate (IR) of the test compound was calculated using the following formula: IR (%)=(1−(RLU compound−RLU blank control)/(RLU meidum control−RLU blank control))*100%. The inhibition rates of different concentrations of compounds were calculated in Excel, and then the inhibition curves were plotted and the related parameters (including the minimum inhibition rate, maximum inhibition rate and IC50) were calculated using GraphPad Prism software.

The next experiment relates to AsPC-1. Description: Cell proliferation inhibition, AsPC-1 (CellTiter-Glo 3D, 7 days). The format is cell-based. The note with it: AsPC-1, 7 days. As to the method: as §1, §2, §3, §4, §5, §6
(In general: ATP-based viability assays read luminescence as a measure of living cells.)

Where two headings read alike, the source gives them in different places. Some results are limits rather than exact numbers.

Regarding `Fc1c(-c2c(C(F)(F)F)ccc3[nH]ncc23)ncc2c(N3CC4CCC(C3)N4)nc(OC[C@@]34CCCN3C[C@@]3(CC3(F)F)C4)nc12` [Example 33, (1S,7a'S)-7a′-(((4-((1R,5S)-3,8-diazabicyclo[3.2.1]octan-3-yl)-8-fluoro-7-(5-(trifluoromethyl)-1H-indazol-4-yl)pyridino[4,3-d]pyrimidin-2-yl)oxy)methyl)-2,2-bifluorotetrahydro-1′H,3′H-spiro[cyclopropan-1,2′-pyrrolizin]], the IC50 in the experiment with GP2D (168 h) was more than 100 nM; in the experiment with AsPC-1 (Homo sapiens, ASPC1, 168 h) it was more than 1000 nM.
The matching figures for `CC(=O)Nc1cc(Cl)c(C(F)(F)F)c(-c2ncc3c(N4C[C@H]5CC[C@@H](C4)N5)nc(OC[C@@]45CCCN4C[C@@]4(CC4(F)F)C5)nc3c2F)c1` [Example 38, N-(3-(4-((1R,5S)-3,8-diazabicyclo[3.2.1]octan-3-yl)-2-(((1S,7a'S)-2,2-difluorodihydro-1′H,3′H-spiro[cyclopropan-1,2′-pyrrolizin]-7a′(5′H)-yl)methoxy)-8-fluoropyridino[4,3-d]pyrimidin-7-yl)-5-chloro-4-(trifluoromethyl)phenyl)acetamide]: 14.1 nM and 142 nM.
`CS(=O)(=O)Nc1cc(Cl)c(C(F)(F)F)c(-c2ncc3c(N4C[C@H]5CC[C@@H](C4)N5)nc(OC[C@@]45CCCN4C[C@@]4(CC4(F)F)C5)nc3c2F)c1` [Example 39, N-(3-(4-((1R,5S)-3,8-diazabicyclo[3.2.1]octan-3-yl)-2-(((1S,7a'S)-2,2-difluorodihydro-1′H,3′H-spiro[cyclopropan-1,2′-pyrrolizin]-7a′(5′H)-yl)methoxy)-8-fluoropyridino[4,3-d]pyrimidin-7-yl)-5-chloro-4-(trifluoromethyl)phenyl)methanesulfonamide]: the IC50 in the experiment on GP2D (168 h) came out at 38.3 nM; in the experiment with AsPC-1 (Homo sapiens, ASPC1, 168 h), 521 nM.
On to `Oc1cc(Cl)c(C(F)(F)F)c(-c2ncc3c(N4CC5CCC(C4)N5)nc(OC[C@@]45CCCN4C[C@@]4(CC4(F)F)C5)nc3c2F)c1` [Example 40], for which the IC50 in the experiment on GP2D (168 h) stood at 14 nM; in the experiment with AsPC-1 (Homo sapiens, ASPC1, 168 h), 51.6 nM.
On to `N#Cc1cc(N)cc(-c2ncc3c(N4C[C@H]5CC[C@@H](C4)N5)nc(OC[C@@]45CCCN4C[C@@]4(CC4(F)F)C5)nc3c2F)c1C(F)(F)F` [Example 43, 3-(4-((1R,5S)-3,8-diazabicyclo[3.2.1]octan-3-yl)-2-(((1S,7a'S)-2,2-difluorodihydro-1′H,3′H-spiro[cyclopropan-1,2′-pyrrolizin]-7a′(5′H)-yl)methoxy)-8-fluoropyridino[4,3-d]pyrimidin-7-yl)-5-amino-2-(trifluoromethyl)benzonitrile], for which the IC50 is 4.17 nM with GP2D (168 h) and 115 nM in the experiment on AsPC-1 (Homo sapiens, ASPC1, 168 h).
Turning to `Nc1cc(F)c(C(F)(F)F)c(-c2ncc3c(N4C[C@H]5CC[C@@H](C4)N5)nc(OC[C@@]45CCCN4C[C@@]4(CC4(F)F)C5)nc3c2F)c1` [Example 44, 3-(4-((1R,5S)-3,8-diazabicyclo[3.2.1]octan-3-yl)-2-(((1S,7a'S)-2,2-difluorodihydro-1′H,3′H-spiro[cyclopropan-1,2′-pyrrolizin]-7a′(5′H)-yl)methoxy)-8-fluoropyridino[4,3-d]pyrimidin-7-yl)-5-fluoro-4-(trifluoromethyl)aniline], the concentration for half-maximal inhibition (IC50) in the experiment with GP2D (168 h) worked out at 1.6 nM; with AsPC-1 (Homo sapiens, ASPC1, 168 h) it was 23.3 nM.
The matching figures for `Nc1cc(-c2ncc3c(N4C[C@H]5CC[C@@H](C4)N5)nc(OC[C@@]45CCCN4C[C@@]4(CC4(F)F)C5)nc3c2F)c(Cl)c(C(F)(F)F)c1` [Example 45, 3-(4-((1R,5S)-3,8-diazabicyclo[3.2.1]octan-3-yl)-2-(((1S,7a'S)-2,2-difluorodihydro-1′H,3′H-spiro[cyclopropan-1,2′-pyrrolizin]-7a′(5′H)-yl)methoxy)-8-fluoropyridino[4,3-d]pyrimidin-7-yl)-4-chloro-5-(trifluoromethyl)aniline]: 60 nM and 896 nM.
`Nc1cc(Cl)c(F)c(-c2ncc3c(N4C[C@H]5CC[C@@H](C4)N5)nc(OC[C@@]45CCCN4C[C@@]4(CC4(F)F)C5)nc3c2F)c1` [Example 46, 3-(4-((1R,5S)-3,8-diazabicyclo[3.2.1]octan-3-yl)-2-(((1S,7a'S)-2,2-difluorodihydro-1′H,3′H-spiro[cyclopropan-1,2′-pyrrolizin]-7a′(5′H)-yl)methoxy)-8-fluoropyridino[4,3-d]pyrimidin-7-yl)-5-chloro-4-fluoroaniline]: the half-inhibitory concentration (IC50) with GP2D (168 h) was more than 100 nM; in the experiment on AsPC-1 (Homo sapiens, ASPC1, 168 h), more than 1000 nM.
The matching figures for `Nc1cc(Cl)c(Cl)c(-c2ncc3c(N4C[C@H]5CC[C@@H](C4)N5)nc(OC[C@@]45CCCN4C[C@@]4(CC4(F)F)C5)nc3c2F)c1` [Example 47, 3-(4-((1R,5S)-3,8-diazabicyclo[3.2.1]octan-3-yl)-2-(((1S,7a'S)-2,2-difluorodihydro-1′H,3′H-spiro[cyclopropan-1,2′-pyrrolizin]-7a′(5′H)-yl)methoxy)-8-fluoropyridino[4,3-d]pyrimidin-7-yl)-4,5-dichloroaniline]: 4.54 nM and 62.3 nM.
The like results for `N#Cc1cc(N)cc(-c2ncc3c(N4C[C@H]5CC[C@@H](C4)N5)nc(OC[C@@]45CCCN4C[C@@]4(CC4(F)F)C5)nc3c2F)c1Cl` [Example 48, 3-(4-((1R,5S)-3,8-diazabicyclo[3.2.1]octan-3-yl)-2-(((1S,7a'S)-2,2-difluorodihydro-1′H,3′H-spiro[cyclopropan-1,2′-pyrrolizin]-7a′(5′H)-yl)methoxy)-8-fluoropyridino[4,3-d]pyrimidin-7-yl)-5-amino-2-chlorobenzonitrile] were, in that order, 66 nM and 779 nM.
Regarding `N#Cc1c(Cl)cc(N)cc1-c1ncc2c(N3C[C@H]4CC[C@@H](C3)N4)nc(OC[C@@]34CCCN3C[C@@]3(CC3(F)F)C4)nc2c1F` [Example 49, 2-(4-((1R,5S)-3,8-diazabicyclo[3.2.1]octan-3-yl)-2-(((1S,7a'S)-2,2-difluorodihydro-1′H,3′H-spiro[cyclopropan-1,2′-pyrrolizin]-7a′(5′H)-yl)methoxy)-8-fluoropyridino[4,3-d]pyrimidin-7-yl)-4-amino-6-chlorobenzonitrile], the half-maximal inhibitory concentration (IC50) in the experiment with GP2D (168 h) was 24.4 nM; in the experiment on AsPC-1 (Homo sapiens, ASPC1, 168 h), more than 1000 nM.
In the case of `N#Cc1c(-c2ncc3c(N4C[C@H]5CC[C@@H](C4)N5)nc(OC[C@@]45CCCN4C[C@@]4(CC4(F)F)C5)nc3c2F)cc(N)cc1C(F)(F)F` [Example 50, 2-(4-((1R,5S)-3,8-diazabicyclo[3.2.1]octan-3-yl)-2-(((1S,7a'S)-2,2-difluorodihydro-1′H,3′H-spiro[cyclopropan-1,2′-pyrrolizin]-7a′(5′H)-yl)methoxy)-8-fluoropyridino[4,3-d]pyrimidin-7-yl)-4-amino-6-(trifluoromethyl)benzonitrile], the IC50 is more than 100 nM in the experiment on GP2D (168 h) and more than 1000 nM with AsPC-1 (Homo sapiens, ASPC1, 168 h).
Turning to `Nc1cnc(C(F)(F)F)c(-c2ncc3c(N4C[C@H]5CC[C@@H](C4)N5)nc(OC[C@@]45CCCN4C[C@@]4(CC4(F)F)C5)nc3c2F)c1` [Example 52, 5-(4-((1R,5S)-3,8-diazabicyclo[3.2.1]octan-3-yl)-2-(((1S,7a'S)-2,2-difluorodihydro-1′H,3′H-spiro[cyclopropan-1,2′-pyrrolizin]-7a′(5′H)-yl)methoxy)-8-fluoropyridino[4,3-d]pyrimidin-7-yl)-6-(trifluoromethyl)pyridin-3-amine], the IC50 in the experiment on GP2D (168 h) is more than 100 nM; in the experiment on AsPC-1 (Homo sapiens, ASPC1, 168 h), more than 1000 nM.
Turning to `Nc1cncc(-c2ncc3c(N4C[C@H]5CC[C@@H](C4)N5)nc(OC[C@@]45CCCN4C[C@@]4(CC4(F)F)C5)nc3c2F)c1C(F)(F)F` [Example 53, 5-(4-((1R,5S)-3,8-diazabicyclo[3.2.1]octan-3-yl)-2-(((1S,7a'S)-2,2-difluorodihydro-1′H,3′H-spiro[cyclopropan-1,2′-pyrrolizin]-7a′(5′H)-yl)methoxy)-8-fluoropyridino[4,3-d]pyrimidin-7-yl)-4-(trifluoromethyl)pyridin-3-amine], the IC50 with GP2D (168 h) stood at 60 nM; in the experiment with AsPC-1 (Homo sapiens, ASPC1, 168 h), 896 nM.
The like results for `Cc1nc(N)cc(-c2ncc3c(N4C[C@H]5CC[C@@H](C4)N5)nc(OC[C@@]45CCCN4C[C@@]4(CC4(F)F)C5)nc3c2F)c1C(F)(F)F` [Example 55, 4-(4-((1R,5S)-3,8-diazabicyclo[3.2.1]octan-3-yl)-2-(((1S,7a'S)-2,2-difluorodihydro-1′H,3′H-spiro[cyclopropan-1,2′-pyrrolizin]-7a′(5′H)-yl)methoxy)-8-fluoropyridino[4,3-d]pyrimidin-7-yl)-6-methyl-5-(trifluoromethyl)pyridin-2-amine] were, in that order, 6.5 nM and 56.7 nM.
As to “(1S,7a'S)-7a′-(((4-(1R,5S)-3,8-diazabicyclo[3.2.1]octan-3-yl)-7-(8-ethynyl-7-fluoronaphthol-1-yl)-8-fluoropyridino[4,3-d]pyrimidin-2-yl)oxy)methyl)-2,2-difluorodihydro-1′H,3′H-spiro[cyclopropan-1,2′-pyrrolizin] [Example 21]”, the values for the IC50 with GP2D and in the experiment with AsPC-1 were 4.92 nM and 19.1 nM, respectively.

By IC50 is commonly meant the point on the concentration scale where inhibition reaches its midpoint. Read a high IC50 as lower potency.

These data come from patent US20250206758A1, “SUBSTITUTED BRIDGED RING INHIBITOR, PREPARATION METHOD THEREFOR AND APPLICATION THEREOF” (SUZHOU ZELGEN BIOPHARMACEUTICALS CO., LTD., priority 2022, published 2025).
